# Measured values reported in patent publication US8334382B2, “Substituted biaryl piperazinyl-pyridine analogues” (Neurogen Corporation, priority 2004, dated 2012).
# Biological target: T1, human capsaicin receptor (Homo sapiens, UniProt Q8NER1)
# T1 construct: expressed in transfected cells; host or cells: HEK293, stably transfected with pBK-CMV construct
# Assay: Calcium mobilization assay, determination of antagonist activity
# Type: cell-based
# Details: capsaicin at EC50; cells expressing human capsaicin receptor; Example 6
# Method in brief: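 HEK293 cells stably expressing full-length human TRPV1, loaded with Fluo-3 AM in KRH buffer pH 7.4, preincubated with compound (final 1-5 µM) in the dark at room temperature for 0.5-6 h, then stimulated with capsaicin at its EC50. FLIPR fluorescence gave IC50 as concentration halving the capsaicin response.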
# T1 sequence (Q8NER1 whole entry): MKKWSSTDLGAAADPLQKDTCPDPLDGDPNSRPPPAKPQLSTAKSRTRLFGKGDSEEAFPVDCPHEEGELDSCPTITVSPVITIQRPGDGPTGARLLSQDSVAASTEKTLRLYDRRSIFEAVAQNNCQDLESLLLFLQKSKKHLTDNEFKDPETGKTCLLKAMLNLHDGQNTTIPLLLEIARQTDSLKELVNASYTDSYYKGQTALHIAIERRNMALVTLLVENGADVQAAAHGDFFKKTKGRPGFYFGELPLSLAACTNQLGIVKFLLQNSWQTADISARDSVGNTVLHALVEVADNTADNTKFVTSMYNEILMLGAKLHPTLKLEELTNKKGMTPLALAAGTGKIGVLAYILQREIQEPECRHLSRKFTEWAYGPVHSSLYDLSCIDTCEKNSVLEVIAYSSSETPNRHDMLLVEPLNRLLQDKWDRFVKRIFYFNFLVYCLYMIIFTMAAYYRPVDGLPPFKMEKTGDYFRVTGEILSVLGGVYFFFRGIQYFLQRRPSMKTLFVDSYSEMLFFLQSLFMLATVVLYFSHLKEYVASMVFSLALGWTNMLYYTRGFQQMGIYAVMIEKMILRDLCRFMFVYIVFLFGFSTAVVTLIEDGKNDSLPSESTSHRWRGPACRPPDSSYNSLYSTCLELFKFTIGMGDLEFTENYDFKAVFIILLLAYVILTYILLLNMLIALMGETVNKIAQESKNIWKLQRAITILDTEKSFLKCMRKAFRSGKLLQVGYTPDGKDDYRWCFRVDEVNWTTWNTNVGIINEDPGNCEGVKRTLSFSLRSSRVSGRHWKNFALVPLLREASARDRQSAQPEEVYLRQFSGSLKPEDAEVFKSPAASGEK
row,Compound,IC50 [nM]
1,"C[C@@H]1CN(c2ncc(OCCO)cc2Cl)CCN1c1cc(-c2ccc(F)c(Cl)c2)nc(N2CCC[C@H]2C)n1 [Example 183, 2-{[5-chloro-6-((3R)-4-{6-(3-chloro-4-fluorophenyl)-2-[(2R)-2-methylpyrrolidin-1-yl]pyrimidin-4-yl}-3-methylpiperazin-1-yl)pyridin-3-yl]oxy}ethanol]",≤ 1000
2,"Cc1cc(OCCO)cnc1N1CCN(c2cc(-c3ccc(F)cc3)nc(N3CCC[C@H]3CO)n2)[C@H](C)C1 [Example 184, 2-{[6-((3R)-4-{6-(4-fluorophenyl)-2-[(2S)-2-(hydroxymethyl)pyrrolidin-1-yl]pyrimidin-4-yl}-3-methylpiperazin-1-yl)-5-methylpyridin-3-yl]oxy}ethanol]",≤ 1000
3,"C[C@@H]1CN(c2ncc(CCN(C)C)cc2Cl)CCN1c1cc(-c2ccc(F)c(Cl)c2)nc(N2CCC[C@H]2C)n1 [Example 186, 2-[5-chloro-6-((3R)-4-{6-(3-chloro-4-fluorophenyl)-2-[(2R)-2-methylpyrrolidin-1-yl]pyrimidin-4-yl}-3-methylpiperazin-1-yl)pyridin-3-yl]-N,N-dimethylethanamine]",≤ 1000

# Results, then the molecule that gave them:
row,IC50 [nM],Compound
1,≤ 1000,"C[C@@H]1CN(c2ncc(CCO)cc2Cl)CCN1c1cc(-c2ccc(F)c(Cl)c2)nc(N2CCC[C@H]2C)n1 [Example 185, 2-[5-chloro-6-((3R)-4-{6-(3-chloro-4-fluorophenyl)-2-[(2R)-2-methylpyrrolidin-1-yl]pyrimidin-4-yl}-3-methylpiperazin-1-yl)pyridin-3-yl]ethanol]"
2,≤ 1000,"CNCCc1cnc(N2CCN(c3cc(-c4ccc(F)c(Cl)c4)nc(N4CCC[C@H]4C)n3)[C@H](C)C2)c(Cl)c1 [Example 187, 2-[5-chloro-6-((3R)-4-{6-(3-chloro-4-fluorophenyl)-2-[(2R)-2-methylpyrrolidin-1-yl]pyrimidin-4-yl}-3-methylpiperazin-1-yl)pyridin-3-yl]-N-methylethanamine]"
3,≤ 1000,"Cc1cc(C#N)cnc1N1CCN(c2cc(-c3ccc(F)cc3)nc(N3CCC[C@H]3C)n2)[C@H](C)C1 [Example 188, 6-((3R)-4-{6-(4-fluorophenyl)-2-[(2R)-2-methyl-1-pyrrolidinyl]-4-pyrimidinyl}-3-methyl-1-piperazinyl)-5-methylnicotinonitrile]"
4,≤ 1000,"Cc1cccnc1N1CCN(c2nc(N3CCC[C@H]3C)nc(-c3ccc(F)cc3)c2F)[C@H](C)C1 [Example 189, 5-fluoro-4-(4-fluorophenyl)-6-[(2R)-2-methyl-4-(3-methylpyridin-2-yl)piperazin-1-yl]-2-[(2R)-2-methylpyrrolidin-1-yl]pyrimidine]"

# Biological target: VR
# Assay: not given
# Details: binds to VR with no more than moderate affinity; cited from earlier work
row,Compound,Ki [nM]
1,Cl.Cl.Cl.Cl.Cl.Cl.N.N.N.N.N.N.N.N.N.N.N.N.N.N.[O-2].[O-2].[Ru+3].[Ru+3].[Ru+4] [ruthenium red],≥ 140000
